In paper PMC13462928 (Nature Communications, 2026):
Like-named read-outs stand apart in the source and are kept apart here. Each block holds one compound with its values, some of them ahead of it.

What was measured:
HAP1 cells = assay: Titration of NUDT5 degraders and controls against fixed 6-TG (2 µg/mL) in HAP1 cells, cell viability; assay type: cell-based, human; settings: HAP1, 2 µg/mL 6-TG, 72 h
Experimental: Cells were counted and adjusted to a density of 25,000 cells/mL in culture medium. […] Plates were sealed with breathable film and incubated at 37 °C with 5% CO₂ for 72 hours. Cell viability was assessed using the CellTiter-Glo Luminescent Cell Viability Assay, following the manufacturer’s protocol (Promega). Luminescence was measured using a PHERAstar FS or FSX plate reader, and data were analyzed using GraphPad Prism software (versions 9 or 10). Results were normalized to the vehicle control (DMSO).

NUDT5 [1] = target: T1, NUDT5 (Homo sapiens, UniProt Q96SW2+Q9UKK9); assay: Western blot NUDT5 degradation in HAP1 cells; assay type: cell-based; parameters: endogenous in cells; host or cells: HAP1; settings: HAP1 cells, Western blot, Fig. 3B
Experimental: (§1) Pellets were lysed on ice using RIPA buffer (25 mM Tris (pH 7.5), 150 mM NaCl, 1% Igepal, 1% SDS, 0.1% SDC, 1x protease inhibitor (Roche, cOmplete mini, 11836170001), 1x phosphatase (Thermo Scientific, Halt, 78429), 0.1% benzonase (Merck, E1014-5KU)), incubated for 15 min and then centrifuged for 20 min at 4 °C at maximum speed in a table-top centrifuge. […] Membranes were blocked with 6% milk in PBS-T for 1 h at RT, washed, and then incubated with primary antibody diluted in PBS-T supplemented with 0.1% NaN3 overnight at 4 °C. Membranes were incubated with fluorophore-conjugated secondary antibodies, Alexa Fluor 680 anti-rabbit IgG (Life Technologies, A21109), Alexa Fluor 750 anti-mouse IgG (Life Technologies, A21037) diluted 1:5000 in 2% milk PBS-T, washed and imaged with an Odyssey imager (Licor).

NUDT5 [2] = target: NUDT5 (Homo sapiens, UniProt Q9UKK9); assay: NanoBRET NUDT5 target engagement (TE) assay in HEK293 cells; assay type: cell-based; parameters: expressed in transfected cells; host or cells: HEK293
[3] = target: NUDT5 and the respective E3 ligase (Homo sapiens, UniProt P40337+Q9UKK9); assay: NanoBRET ternary complex formation assay NUDT5 and the respective E3 ligase (VHL or CRBN) in HEK293 cells; assay type: cell-based; settings: for Ternary complex formation below 1 µM (4 h): HEK293, 4 h; for Ternary complex formation below 1 µM (20 h): HEK293, 20 h
Sequence of NUDT5 and the respective E3 ligase (P40337 whole entry, one chain of several): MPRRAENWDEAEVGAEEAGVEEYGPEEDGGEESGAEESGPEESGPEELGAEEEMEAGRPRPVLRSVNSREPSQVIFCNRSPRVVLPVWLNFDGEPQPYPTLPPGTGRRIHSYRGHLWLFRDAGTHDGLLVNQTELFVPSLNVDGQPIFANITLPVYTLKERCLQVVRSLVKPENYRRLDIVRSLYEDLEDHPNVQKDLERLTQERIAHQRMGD
Experimental: NanoBRET ternary complex assays were performed following the manufacturer’s instructions (Promega). […] After 4 h or 20 h of incubation, a mix of substrate in assay medium was added to each well. Donor and acceptor signals were measured in a PHERAstar FSX or FS plate reader and analyzed by GraphPad Prism (v.9 or v.10). The acceptor/donor ratio was calculated, the no ligand background signal was subtracted, and multiplied by 1000 to yield mBRET units. Data were then normalized to DMSO.

NUDT5 [4] = target: T1, NUDT5; assay: Western blot NUDT5 degradation in HEK293 cells; assay type: cell-based; settings: 20 h, Western blot
Experimental: as §1

HAP1 cell lines = assay: TH1760/6-TG cell viability assay in HAP1 cell lines; assay type: cell-based, human; settings: 72 h
Experimental: After 72 h incubation, cell viability was measured using the CellTiter-Glo assay (Promega). Signals were normalized to the control condition.

[5] = read-out: EC50 (µM), TE 4h, HEK293, 4 h, Supplementary Table 1
[6] = read-out: EC50 (nM) TE (4h), HEK293, 4 h, Supplementary Table 3

NUDT5 degradation (NUDT5 [1]): preventing NUDT5 degradation | EC50 (NUDT5 [2]; HEK293 cells, Supplementary Fig. 6B, read-out: NUDT5 NanoBRET target engagement EC50): 0.028 µM
SMILES: CN1C(=O)CCC(N2C(=O)c3ccc(N4CCN(CC5CCN(C(=O)N6CCN(c7nc8c(c(=O)n(C)c(=O)n8C)n7Cc7nnc(-c8ccc(Cl)c(Cl)c8)o7)CC6)CC5)CC4)cc3C2=O)C1=O (centres unmarked) [dNUDT5nc]
rescue of 6-TG-induced toxicity (HAP1 cells): failed to rescue cell viability | NUDT5 engagement in live cells (NUDT5 [2]; NanoBRET): engaged their cognate target NUDT5 in live cells

Ternary complex formation below 1 µM (4 h) ([3]; Supplementary Table 2): Yes | Ternary complex formation below 1 µM (20 h) ([3]; Supplementary Table 2): Yes
SMILES: Cn1c(=O)c2c(nc(N3CCN(C(=O)CCCCCCCCOc4cccc5c4C(=O)N(C4CCC(=O)NC4=O)C5=O)CC3)n2Cc2nnc(-c3ccc(Cl)c(Cl)c3)o2)n(C)c1=O (centres unmarked) [ASM135]

Ternary complex formation below 1 µM (20 h) ([3]; Supplementary Table 1): No | EC50 (NUDT5 [2]; [5]): > 10 µM
SMILES: Cc1ncsc1-c1ccc(CNC(=O)C2CC(O)CN2C(=O)C(NC(=O)COCCOCCCCCCC(=O)N2CCC(n3nc(-c4ccc(Oc5ccccc5)cc4)c4c(N)ncnc43)CC2)C(C)(C)C)cc1 (centres unmarked) [ASM74]

Ternary complex formation below 1 µM (20 h) ([3]; Supplementary Table 3): No | EC50 (NUDT5 [2]; [6]): 0.103 µM
SMILES: Cn1c(=O)c2c(nc(N3CCN(CC4CCN(c5ccc6c(c5)C(=O)N(C5CCC(=O)NC5=O)C6=O)C4)CC3)n2Cc2nnc(-c3ccc(Cl)c(Cl)c3)o2)n(C)c1=O (centres unmarked) [ASM105]

Ternary complex formation below 1 µM (20 h) ([3]; Supplementary Table 1): No | EC50 (NUDT5 [2]; [5]): > 10 µM
SMILES: Cc1ncsc1-c1ccc(CNC(=O)C2CC(O)CN2C(=O)C(NC(=O)CCCCCOCCCCCOCCCCCCN2CCCC(n3nc(-c4ccc(Oc5ccccc5)cc4)c4c(N)ncnc43)C2)C(C)(C)C)cc1 (centres unmarked) [ASM32]

Ternary complex formation below 1 µM (4 h) ([3]; Supplementary Table 2): Yes | Ternary complex formation below 1 µM (20 h) ([3]; Supplementary Table 2): Yes
SMILES: Cn1c(=O)c2c(nc(N3CCN(C(=O)CCCCCCCNc4cccc5c4C(=O)N(C4CCC(=O)NC4=O)C5=O)CC3)n2Cc2nnc(-c3ccc(Cl)c(Cl)c3)o2)n(C)c1=O (centres unmarked) [ASM134]

Ternary complex formation below 1 µM (20 h) ([3]; Supplementary Table 2): Yes
SMILES: Cn1c(=O)c2c(nc(N3CCN(C(=O)CCCNc4cccc5c4C(=O)N(C4CCC(=O)NC4=O)C5=O)CC3)n2Cc2nnc(-c3ccc(Cl)c(Cl)c3)o2)n(C)c1=O (centres unmarked) [ASM111]
effect on NUDT5 protein levels (NUDT5 [4]): no significant effects on NUDT5 protein levels

Ternary complex formation below 1 µM (20 h) ([3]; Supplementary Table 2): No | EC50 (NUDT5 [2]; read-out: EC50 (nM) TE (4h), HEK293, 4 h, Supplementary Table 2): 2 µM
SMILES: Cc1ncsc1-c1ccc(CNC(=O)C2CC(O)CN2C(=O)C(NC(=O)COCCOCCCCCCC(=O)N2CCN(c3nc4c(c(=O)n(C)c(=O)n4C)n3Cc3nnc(-c4ccc(Cl)c(Cl)c4)o3)CC2)C(C)(C)C)cc1 (centres unmarked) [ASM076]

Ternary complex formation below 1 µM (4 h) ([3]; Supplementary Table 2): No | Ternary complex formation below 1 µM (20 h) ([3]; Supplementary Table 2): No
SMILES: Cn1c(=O)c2c(nc(N3CCN(C(=O)CCCCCCOc4cccc5c4C(=O)N(C4CCC(=O)NC4=O)C5=O)CC3)n2Cc2nnc(-c3ccc(Cl)c(Cl)c3)o2)n(C)c1=O (centres unmarked) [ASM136]

SMILES: O=C(c1ccc2[nH]ccc2c1)N1CCN(S(=O)(=O)c2ccc3[nH]c(=O)oc3c2)CC1 [TH1760]
sensitization of cells towards 6-TG (HAP1 cell lines; HAP1 WT, 6-TG 1 µM fixed): sensitized HAP1 WT cells towards 6-TG in a dose-dependent manner | effect on cell viability without 6-TG (HAP1 cell lines; HAP1 cell lines, up to 50 µM): does not affect HAP1 cell viability

Ternary complex formation below 1 µM (20 h) ([3]; Supplementary Table 1): No | EC50 (NUDT5 [2]; [5]): > 10 µM
SMILES: Cc1ncsc1-c1ccc(CNC(=O)C2CC(O)CN2C(=O)C(NC(=O)COCCOCCCCCCC(=O)N2CCCC(n3nc(-c4ccc(Oc5ccccc5)cc4)c4c(N)ncnc43)C2)C(C)(C)C)cc1 (centres unmarked) [ASM75]

Ternary complex formation below 1 µM (4 h) ([3]; Supplementary Table 2): Yes | Ternary complex formation below 1 µM (20 h) ([3]; Supplementary Table 2): Yes
SMILES: Cn1c(=O)c2c(nc(N3CCN(C(=O)CCCCNc4cccc5c4C(=O)N(C4CCC(=O)NC4=O)C5=O)CC3)n2Cc2nnc(-c3ccc(Cl)c(Cl)c3)o2)n(C)c1=O (centres unmarked) [ASM124]

Ternary complex formation below 1 µM (4 h) ([3]; Supplementary Table 2): Yes | Ternary complex formation below 1 µM (20 h) ([3]; Supplementary Table 2): Yes
SMILES: Cn1c(=O)c2c(nc(N3CCN(C(=O)CCOCCNc4cccc5c4C(=O)N(C4CCC(=O)NC4=O)C5=O)CC3)n2Cc2nnc(-c3ccc(Cl)c(Cl)c3)o2)n(C)c1=O (centres unmarked) [ASM137]
effect on NUDT5 protein levels (NUDT5 [4]): no significant effects on NUDT5 protein levels

Ternary complex formation below 1 µM (20 h) ([3]; Supplementary Table 2): No
SMILES: Cn1c(=O)c2c(nc(N3CCN(C(=O)CCCCNC(=O)COc4cccc5c4C(=O)N(C4CCC(=O)NC4=O)C5=O)CC3)n2Cc2nnc(-c3ccc(Cl)c(Cl)c3)o2)n(C)c1=O (centres unmarked) [ASM57]

Ternary complex formation below 1 µM (20 h) ([3]; Supplementary Table 1): No | EC50 (NUDT5 [2]; [5]): 1.3 µM
SMILES: Nc1ncnc2c1c(-c1ccc(Oc3ccccc3)cc1)nn2C1CCN(CCOCCOCC(=O)Nc2ccc3c(c2)C(=O)N(C2CCC(=O)NC2=O)C3=O)CC1 (centres unmarked) [MT-802, reference compound]

Ternary complex formation below 1 µM (20 h) ([3]; Supplementary Table 2): Yes
SMILES: Cn1c(=O)c2c(nc(N3CCN(C(=O)CCCCCCNc4cccc5c4C(=O)N(C4CCC(=O)NC4=O)C5=O)CC3)n2Cc2nnc(-c3ccc(Cl)c(Cl)c3)o2)n(C)c1=O (centres unmarked) [ASM84]

Ternary complex formation below 1 µM (4 h) ([3]; Supplementary Table 2): Yes | Ternary complex formation below 1 µM (20 h) ([3]; Supplementary Table 2): Yes
SMILES: Cn1c(=O)c2c(nc(N3CCN(C(=O)CCCCCCCCNc4cccc5c4C(=O)N(C4CCC(=O)NC4=O)C5=O)CC3)n2Cc2nnc(-c3ccc(Cl)c(Cl)c3)o2)n(C)c1=O (centres unmarked) [ASM133]

Ternary complex formation below 1 µM (20 h) ([3]; Supplementary Table 3): No | EC50 (NUDT5 [2]; [6]): 0.061 µM
SMILES: Cn1c(=O)c2c(nc(N3CCN(CC4CCN(c5cccc6c5C(=O)N(C5CCC(=O)NC5=O)C6=O)CC4)CC3)n2Cc2nnc(-c3ccc(Cl)c(Cl)c3)o2)n(C)c1=O (centres unmarked) [ASM110]

Ternary complex formation below 1 µM (4 h) ([3]; Supplementary Table 2): No | Ternary complex formation below 1 µM (20 h) ([3]; Supplementary Table 2): No
SMILES: Cc1ncsc1-c1ccc(CNC(=O)C2CC(O)CN2C(=O)C(NC(=O)CCOCCOCCOCCC(=O)N2CCN(c3nc4c(c(=O)n(C)c(=O)n4C)n3Cc3nnc(-c4ccc(Cl)c(Cl)c4)o3)CC2)C(C)(C)C)cc1 (centres unmarked) [ASM131]

Ternary complex formation below 1 µM (20 h) ([3]; Supplementary Table 3): No | EC50 (NUDT5 [2]; [6]): 0.017 µM
SMILES: Cn1c(=O)c2c(nc(N3CCN(CC4CCN(c5cc6c(cc5F)C(=O)N(C5CCC(=O)NC5=O)C6=O)CC4)CC3)n2Cc2nnc(-c3ccc(Cl)c(Cl)c3)o2)n(C)c1=O (centres unmarked) [ASM71]

Ternary complex formation below 1 µM (20 h) ([3]; Supplementary Table 3): Yes | EC50 (NUDT5 [2]; [6]): 0.042 µM
SMILES: Cn1c(=O)c2c(nc(N3CCN(CC4CCN(c5ccc6c(c5)C(=O)N(C5CCC(=O)NC5=O)C6=O)CC4)CC3)n2Cc2nnc(-c3ccc(Cl)c(Cl)c3)o2)n(C)c1=O (centres unmarked) [ASM70]

Ternary complex formation below 1 µM (20 h) ([3]; Supplementary Table 3): Yes | EC50 (NUDT5 [2]; [6]): 0.102 µM
SMILES: Cn1c(=O)c2c(nc(N3CCN(CCC4CCN(c5ccc6c(c5)C(=O)N(C5CCC(=O)NC5=O)C6=O)CC4)CC3)n2Cc2nnc(-c3ccc(Cl)c(Cl)c3)o2)n(C)c1=O (centres unmarked) [ASM102]

Ternary complex formation below 1 µM (4 h) ([3]; Supplementary Table 2): Yes | Ternary complex formation below 1 µM (20 h) ([3]; Supplementary Table 2): Yes
SMILES: Cn1c(=O)c2c(nc(N3CCN(C(=O)CCCCCNc4cccc5c4C(=O)N(C4CCC(=O)NC4=O)C5=O)CC3)n2Cc2nnc(-c3ccc(Cl)c(Cl)c3)o2)n(C)c1=O (centres unmarked) [ASM122]
effect on NUDT5 protein levels (NUDT5 [4]): no significant effects on NUDT5 protein levels

Ternary complex formation below 1 µM (20 h) ([3]; Supplementary Table 1): No | EC50 (NUDT5 [2]; [5]): 8.9 µM
SMILES: Nc1ncnc2c1c(-c1ccc(Oc3ccccc3)cc1)nn2[C@@H]1CCCN(C(=O)c2cn(CCOCCOCCOCCNc3cccc4c3C(=O)N(C3CCC(=O)NC3=O)C4=O)nn2)C1 (some centres unmarked) [Compound P13I1, reference compound]

Ternary complex formation below 1 µM (20 h) ([3]; Supplementary Table 2): Yes
SMILES: Cn1c(=O)c2c(nc(N3CCN(C(=O)CCOCCOCCNc4cccc5c4C(=O)N(C4CCC(=O)NC4=O)C5=O)CC3)n2Cc2nnc(-c3ccc(Cl)c(Cl)c3)o2)n(C)c1=O (centres unmarked) [ASM68]

Ternary complex formation below 1 µM (20 h) ([3]; Supplementary Table 1): No | EC50 (NUDT5 [2]; [5]): > 10 µM
SMILES: Cc1ncsc1-c1ccc(CNC(=O)C2CC(O)CN2C(=O)C(NC(=O)CCCCCOCCOCCOCCCCCCN2CCCC(n3nc(-c4ccc(Oc5ccccc5)cc4)c4c(N)ncnc43)C2)C(C)(C)C)cc1 (centres unmarked) [ASM73]
